Columns and labels:
A/M2-V27A mutant channel = A/M2-V27A mutant channel (Influenza A virus, UniProt P0DOF5, V27A); assay type: cell-based
A/M2 S31N mutant = A/M2 S31N mutant (Influenza A virus, UniProt P0DOF5, S31N); assay type: cell-based

Cl.NC12CC3CC(CC(C3)C1)C2 [Amantadine, reference compound]
percentage inhibition against V27A mutant of A/M2 (A/M2-V27A mutant channel; 100 µM): 0%

Cl.NC(CO)C12CC3CC(CC(C3)C1)C2 (stereo not drawn) [Compound 27]
inhibitory effect on S31N mutant (in words) (A/M2 S31N mutant): no inhibitory effect | inhibitory effect on V27A mutant (in words) (A/M2-V27A mutant channel): no inhibitory effect

— paper PMC3116712 (ACS medicinal chemistry letters, 2011)
